Laboratory results taken from ChEMBL document CHEMBL1926604, “Design and synthesis of pyridin-2-ylmethylaminopiperidin-1-ylbutyl amide CCR5 antagonists that are potent inhibitors of M-tropic (R5) HIV-1 replication” (Bioorg Med Chem Lett, 2011).
One block for each compound: values may come before it.

Experiments:
[1] = Volume of distribution at steady state in dog at 5 umol/kg, iv; type: ADME, organism-based, Canis lupus familiaris; conditions: in vivo, read-out: Vdss
[2] = system: Human immunodeficiency virus 1; test: Antiviral activity against R5 tropic Human immunodeficiency virus 1 BAL infected in human PBMC cells assessed as reduction in viral replication by p24 detection based ELISA; type: functional, organism-based
[3] = AUC (0 to infinity) in dog; type: ADME, organism-based, Canis lupus familiaris; design: time infinity; concentration or dose not given beside the values; conditions: plasma
[4] = Plasma protein binding in human plasma at 1 uM after 5 hrs by LC-MS/MS analysis; type: ADME, cell-free; conditions: read-out: PPB (converted)
[5] = system: Rattus norvegicus; test: (§1) Half life in rat at 10 umol/kg, iv; type: ADME, organism-based; conditions: in vivo
[6] = Clearance in dog at 5 umol/kg, iv; type: ADME, organism-based, Canis lupus familiaris; conditions: in vivo
[7] = Oral bioavailability in rat; type: ADME, organism-based; conditions: in vivo
[8] = Cytotoxic activity against human PBMC assessed as reduction in cell viability; type: cell-based
[9] = system: Rattus norvegicus; test: (§2) Volume of distribution at steady state in rat at 10 umol/kg, iv; type: ADME, organism-based; conditions: in vivo
[10] = Oral bioavailability in dog; type: ADME, organism-based, Canis lupus familiaris; conditions: in vivo
[11] = AUC (0 to infinity) in rat; type: ADME, organism-based; design: time infinity; concentration or dose not given beside the values; conditions: plasma
[12] = Cmax in rat; type: ADME, organism-based; conditions: in vivo
[13] = Half life in dog at 5 umol/kg, iv; type: ADME, organism-based, Canis lupus familiaris; conditions: in vivo
[14] = Cmax in dog; type: ADME, organism-based, Canis lupus familiaris; conditions: in vivo
[15] = Clearance in rat at 10 umol/kg, iv; type: ADME, organism-based; conditions: in vivo
[16] = as §1; type: ADME, organism-based; conditions: in vivo, 10 umol/kg
[17] = as §2; type: ADME, organism-based; conditions: in vivo, 10 umol/kg, read-out: Vdss

Structure (SMILES): COc1ccc(N(Cc2cccnc2)C2CCN([C@H](C)CCNC(=O)c3c(C)cc(Cl)nc3C)CC2)cc1
- Vd [1]: 26.7 L/kg
- IC50 [2]: 18.9 nM
- AUC(0-inf) [3]: 2.73 µM·h
- fraction unbound at 5 h, 1 µM [4]: 0.07
- t1/2 [5]: 8.6 h
- clearance [6]: 23.3 mL/min/kg
- bioavailability [7]: 23%
- CC50 [8]: > 37300 nM
- Vdss [9]: 50.5 L/kg
- bioavailability [10]: 37%
- AUC(0-inf) [11]: 4.83 µM·h
- Cmax [12]: 1330 nM
- half-life [13]: 13.2 h
- Cmax [14]: 1570 nM

Structure (SMILES): COc1cccc(CN(c2ccc(Br)cc2)C2CCN(C(C)CCNC(=O)c3c(Cl)cncc3Cl)CC2)c1 (stereo not given)
- IC50 [2]: 2880 nM
- CC50 [8]: 6400 nM

- IC50 [2]: 32.3 nM
- fraction unbound at 5 h, 1 µM [4]: 0.08
Structure (SMILES): COCCOc1ccc(N(Cc2cnccc2C)C2CCN([C@H](C)CCNC(=O)c3c(C)cc(C#N)nc3C)CC2)cc1
- CC50 [8]: > 32600 nM

Structure (SMILES): CC(CCNC(=O)c1c(Cl)cncc1Cl)N1CCC(N(Cc2ccc(Cl)cc2)c2ccc(Br)cc2)CC1 (stereo not given)
- IC50 [2]: > 1300 nM
- CC50 [8]: 4300 nM

Structure (SMILES): COc1ccc(N(Cc2cccc(C#N)c2)C2CCN(C(C)CCNC(=O)c3c(Cl)cncc3Cl)CC2)cc1 (stereo not given)
- IC50 [2]: 14 nM
- CC50 [8]: > 1760 nM

- Vd [1]: 0.4 L/kg
- IC50 [2]: 96 nM
- clearance [15]: 30 mL/min/kg
- AUC(0-inf) [3]: 14.5 µM·h
- fraction unbound at 5 h, 1 µM [4]: < 0.001
- half-life [16]: 4.8 h
- clearance [6]: 5 mL/min/kg
- bioavailability [7]: 16%
- Vd [17]: 4.2 L/kg
- bioavailability [10]: 35%
- AUC(0-inf) [11]: 9.07 µM·h
- Cmax [12]: 2790 nM
- half-life [13]: 1.5 h
- Cmax [14]: 11200 nM
Structure (SMILES): CC(CCNC(=O)c1c(Cl)cncc1Cl)N1CCC(N(Cc2ccccc2)c2ccc(Oc3ccc(C(=O)O)cc3)cc2)CC1 (stereo not given)
- CC50 [8]: 22100 nM

Structure (SMILES): Cc1ccncc1CN(c1ccccc1)C1CCN([C@H](C)CCNC(=O)c2c(C)cc(C#N)nc2C)CC1
- fraction unbound at 5 h, 1 µM [4]: 0.06

Structure (SMILES): COc1ccc(N(Cc2cnccc2C)C2CCN([C@H](C)CCNC(=O)c3c(C)cc(F)nc3C)CC2)cc1
- Vd [1]: 8.3 L/kg
- IC50 [2]: 2.2 nM
- clearance [15]: 16.6 mL/min/kg
- AUC(0-inf) [3]: 0.65 µM·h
- fraction unbound at 5 h, 1 µM [4]: 0.21
- half-life [16]: 3.3 h
- clearance [6]: 32 mL/min/kg
- bioavailability [7]: 3%
- CC50 [8]: > 36300 nM
- Vd [17]: 4.6 L/kg
- bioavailability [10]: 10%
- AUC(0-inf) [11]: 10.9 µM·h
- Cmax [12]: 1270 nM
- half-life [13]: 3 h
- Cmax [14]: 410 nM

- IC50 [2]: 1 nM
Structure (SMILES): CC(CCNC(=O)c1c(Cl)cncc1Cl)N1CCC(N(Cc2cccc(C#N)c2)c2ccc(C(F)(F)F)cc2)CC1 (stereo not given)
- CC50 [8]: 12300 nM

Structure (SMILES): COc1ccc(N(Cc2cccc(C#N)n2)C2CCN([C@H](C)CCNC(=O)c3c(C)cc(Cl)nc3C)CC2)cc1
- Vd [1]: 3 L/kg
- IC50 [2]: 3.5 nM
- AUC(0-inf) [3]: 0.72 µM·h
- fraction unbound at 5 h, 1 µM [4]: 0.16
- clearance [6]: 42.7 mL/min/kg
- CC50 [8]: > 35100 nM
- bioavailability [10]: 15%
- half-life [13]: 0.8 h
- Cmax [14]: 520 nM

Structure (SMILES): CC(CCNC(=O)c1c(Cl)cncc1Cl)N1CCC(N(Cc2ccccc2)c2ccc(OC(F)(F)F)cc2)CC1 (stereo not given)
- IC50 [2]: 59 nM
- CC50 [8]: 4000 nM

Structure (SMILES): COc1ccc(N(Cc2cnccc2C)C2CCN([C@H](C)CCNC(=O)c3c(C)ccnc3Cl)CC2)cc1
- Vd [1]: 10.3 L/kg
- IC50 [2]: 22.3 nM
- clearance [15]: 58.7 mL/min/kg
- AUC(0-inf) [3]: 0.2 µM·h
- fraction unbound at 5 h, 1 µM [4]: 0.12
- half-life [16]: 3 h
- clearance [6]: 36.5 mL/min/kg
- bioavailability [7]: 70%
- CC50 [8]: > 37700 nM
- Vd [17]: 15.4 L/kg
- bioavailability [10]: 4%
- AUC(0-inf) [11]: 18.3 µM·h
- Cmax [12]: 3110 nM
- half-life [13]: 3.3 h
- Cmax [14]: 150 nM

Structure (SMILES): CC(CCNC(=O)c1c(Cl)cncc1Cl)N1CCC(N(Cc2ccccc2)c2ccc(C#N)cc2)CC1 (stereo not given)
- IC50 [2]: 380 nM
- CC50 [8]: 9700 nM

Structure (SMILES): COc1ccc(N(Cc2cnccc2C)C2CCN([C@H](C)CCNC(=O)c3c(C)cc(C#N)nc3C)CC2)cc1
- IC50 [2]: 25.4 nM
- fraction unbound at 5 h, 1 µM [4]: 0.02
- CC50 [8]: > 34800 nM

Structure (SMILES): COC(=O)c1ccc(N(Cc2ccccc2)C2CCN(C(C)CCNC(=O)c3c(Cl)cncc3Cl)CC2)cc1 (stereo not given)
- IC50 [2]: 177 nM
- CC50 [8]: 21400 nM

Structure (SMILES): CC(CCNC(=O)c1c(Cl)cncc1Cl)N1CCC(N(Cc2cccc(C#N)c2)c2ccc(C#N)cc2)CC1 (stereo not given)
- IC50 [2]: 376 nM
- CC50 [8]: 33600 nM

Structure (SMILES): CC(CCNC(=O)c1c(Cl)cncc1Cl)N1CCC(N(Cc2ccccc2)c2ccc(Br)cc2)CC1 (stereo not given)
- IC50 [2]: 220 nM

- Vd [1]: 5.2 L/kg
- IC50 [2]: 0.96 nM
- AUC(0-inf) [3]: 0.48 µM·h
- fraction unbound at 5 h, 1 µM [4]: 0.11
- clearance [6]: 21.1 mL/min/kg
- bioavailability [10]: 5%
- half-life [13]: 2.8 h
- Cmax [14]: 920 nM
Structure (SMILES): COc1ccc(N(Cc2cnccc2C)C2CCN([C@H](C)CCNC(=O)c3c(C)cc(C(=O)NC(C)C)nc3C)CC2)cc1
- CC50 [8]: > 32800 nM

Structure (SMILES): COc1ccc(N(Cc2ccccc2)C2CCN(C(C)CCNC(=O)c3c(Cl)cncc3Cl)CC2)cc1 (stereo not given)
- IC50 [2]: 2170 nM
- CC50 [8]: 36500 nM

- IC50 [2]: 23.1 nM
- fraction unbound at 5 h, 1 µM [4]: 0.19
Structure (SMILES): COCCOc1ccc(N(Cc2cnccc2C)C2CCN([C@H](C)CCNC(=O)c3c(C)cc(F)nc3C)CC2)cc1
- CC50 [8]: > 32700 nM

Structure (SMILES): CC(CCNC(=O)c1c(Cl)cncc1Cl)N1CCC(N(Cc2ccccc2Cl)c2ccc(Br)cc2)CC1 (stereo not given)
- IC50 [2]: > 1250 nM
- CC50 [8]: 5700 nM

- IC50 [2]: 3.3 nM
- fraction unbound at 5 h, 1 µM [4]: 0.11
Structure (SMILES): Cc1ccncc1CN(c1ccc(OCC(N)=O)cc1)C1CCN([C@H](C)CCNC(=O)c2c(C)cc(C#N)nc2C)CC1
- CC50 [8]: > 34300 nM

Structure (SMILES): COc1ccc(N(Cc2cnccc2C)C2CCN([C@H](C)CCNC(=O)c3c(C)ccnc3C)CC2)cc1
- IC50 [2]: 1040 nM
- fraction unbound at 5 h, 1 µM [4]: 0.05
- CC50 [8]: > 38900 nM

Structure (SMILES): COc1ccc(N(Cc2cccc(C#N)n2)C2CCN([C@H](C)CCNC(=O)c3c(C)cc(F)nc3C)CC2)cc1
- IC50 [2]: 3.6 nM
- fraction unbound at 5 h, 1 µM [4]: 0.21
- CC50 [8]: > 35800 nM

Structure (SMILES): CC(CCNC(=O)c1c(Cl)cncc1Cl)N1CCC(N(Cc2cccc(Cl)c2)c2ccc(Br)cc2)CC1 (stereo not given)
- IC50 [2]: 400 nM
- CC50 [8]: 7300 nM

Structure (SMILES): CC(CCNC(=O)c1c(Cl)cncc1Cl)N1CCC(N(Cc2ccccc2)c2ccc(C(F)(F)F)cc2)CC1 (stereo not given)
- IC50 [2]: 110 nM
- CC50 [8]: 8100 nM

Structure (SMILES): CC(CCNC(=O)c1c(Cl)cncc1Cl)N1CCC(N(Cc2ccccc2)c2ccc(C(=O)N(C)C)cc2)CC1 (stereo not given)
- IC50 [2]: 9630 nM
- CC50 [8]: > 30000 nM

- Vd [1]: 4.9 L/kg
- IC50 [2]: 2 nM
- clearance [15]: 61.2 mL/min/kg
- AUC(0-inf) [3]: 0.02 µM·h
- fraction unbound at 5 h, 1 µM [4]: 0.15
- half-life [16]: 1.7 h
- clearance [6]: 157 mL/min/kg
- bioavailability [7]: 27%
- Vd [17]: 9.2 L/kg
- bioavailability [10]: < 1%
- AUC(0-inf) [11]: 7.18 µM·h
- Cmax [12]: 1070 nM
- half-life [13]: 1.3 h
- Cmax [14]: 10 nM
Structure (SMILES): COCCOc1ccc(N(Cc2cnccc2C)C2CCN([C@H](C)CCNC(=O)c3c(C)cc(Cl)nc3C)CC2)cc1
- CC50 [8]: > 32700 nM

- Vd [1]: 6 L/kg
- IC50 [2]: 2 nM
- clearance [15]: 132 mL/min/kg
- AUC(0-inf) [3]: 5.11 µM·h
- fraction unbound at 5 h, 1 µM [4]: < 0.001
- half-life [16]: 5 h
- clearance [6]: 15 mL/min/kg
- bioavailability [7]: 57%
- Vd [17]: 23.7 L/kg
- bioavailability [10]: 36%
- AUC(0-inf) [11]: 7.3 µM·h
- Cmax [12]: 530 nM
- half-life [13]: 5.4 h
- Cmax [14]: 750 nM
Structure (SMILES): CC(CCNC(=O)c1c(Cl)cncc1Cl)N1CCC(N(Cc2cccc(C#N)c2)c2ccc(OC(F)(F)F)cc2)CC1 (stereo not given)
- CC50 [8]: 6000 nM

Structure (SMILES): Cc1ccncc1CN(c1ccc([S+](C)[O-])cc1)C1CCN([C@H](C)CCNC(=O)c2c(C)ncnc2C)CC1 (stereo not given in full)
- IC50 [2]: > 32100 nM
- CC50 [8]: > 32400 nM

Structure (SMILES): COc1ccc(N(Cc2cccnc2)C2CCN([C@H](C)CCNC(=O)c3c(C)cc(F)nc3C)CC2)cc1
- IC50 [2]: 29.6 nM
- fraction unbound at 5 h, 1 µM [4]: 0.14
- CC50 [8]: > 36700 nM

Structure (SMILES): CC(CCNC(=O)c1c(Cl)cncc1Cl)N1CCC(N(Cc2cccc(C#N)c2)c2ccc(Br)cc2)CC1 (stereo not given)
- IC50 [2]: 89 nM
- CC50 [8]: 6700 nM

- IC50 [2]: 3.9 nM
- fraction unbound at 5 h, 1 µM [4]: 0.09
Structure (SMILES): COc1ccc(N(Cc2cccc(C#N)n2)C2CCN([C@H](C)CCNC(=O)c3c(C)cc(C#N)nc3C)CC2)cc1
- CC50 [8]: > 36300 nM

Structure (SMILES): COc1ccc(N(Cc2cnccc2C)C2CCN([C@H](C)CCNC(=O)c3c(C)cncc3C)CC2)cc1
- IC50 [2]: 11500 nM
- CC50 [8]: > 38800 nM
